Some results are limits rather than exact numbers.

As usually defined, the Ki is a dissociation constant, usually derived from enzyme kinetics or from competition with a known ligand. What is called IC50 is the midpoint of a concentration-inhibition curve. Low readings indicate greater potency in that assay, high ones weaker potency in that assay.

One test deals with T1, DDR2 (Homo sapiens, UniProt Q16832).
T1 sequence (Q16832 22-855): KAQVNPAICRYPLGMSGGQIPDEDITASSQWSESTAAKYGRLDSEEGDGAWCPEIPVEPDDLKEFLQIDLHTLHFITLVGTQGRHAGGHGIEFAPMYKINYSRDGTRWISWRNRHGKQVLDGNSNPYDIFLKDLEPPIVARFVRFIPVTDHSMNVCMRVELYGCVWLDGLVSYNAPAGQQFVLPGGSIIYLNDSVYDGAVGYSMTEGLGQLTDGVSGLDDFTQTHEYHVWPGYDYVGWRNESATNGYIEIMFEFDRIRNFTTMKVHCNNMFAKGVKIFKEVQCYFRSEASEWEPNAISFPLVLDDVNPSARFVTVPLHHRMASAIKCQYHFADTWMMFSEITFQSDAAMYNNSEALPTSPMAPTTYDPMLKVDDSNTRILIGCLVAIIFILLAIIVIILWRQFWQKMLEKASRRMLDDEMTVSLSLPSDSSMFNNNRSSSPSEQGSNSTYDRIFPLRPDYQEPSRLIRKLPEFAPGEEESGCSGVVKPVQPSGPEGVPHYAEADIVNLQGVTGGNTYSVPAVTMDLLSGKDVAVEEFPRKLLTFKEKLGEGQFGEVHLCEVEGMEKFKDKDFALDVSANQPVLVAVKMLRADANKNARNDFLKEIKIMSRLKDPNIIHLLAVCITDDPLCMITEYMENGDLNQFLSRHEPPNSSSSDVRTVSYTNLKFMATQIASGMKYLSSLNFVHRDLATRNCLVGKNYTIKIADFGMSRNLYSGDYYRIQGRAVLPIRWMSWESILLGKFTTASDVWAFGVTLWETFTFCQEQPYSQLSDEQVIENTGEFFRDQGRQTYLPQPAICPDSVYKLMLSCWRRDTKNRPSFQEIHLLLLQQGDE
Kind of test: DDR2 binding assay (LanthaScreen Europium Kinase Binding assay). On the set-up: purchased Life Technologies. The following applies: binding assay, 5 nM DDR2, 10 nM Kinase Tracer 178; Ki from IC50 by Cheng-Prusoff; read-out: Ki DDR2. Summed up: (§1)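 TR-FRET tracer-displacement format: 665/615 nm emission ratio (340 nm excitation) gave IC50 by 4-parameter fit, then Ki via Cheng-Prusoff. Each kinase at 5 nM with 2 nM Eu-anti-GST antibody and Tracer 178 (DDR1 20 nM, DDR2 10 nM), 1 h, room temperature, HEPES pH 7.5 buffer.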

The target of test [1] is T2, DDR1 (Homo sapiens, UniProt Q08345). The test is described as follows: DDR1 binding assay (LanthaScreen Europium Kinase Binding assay). On the set-up: purchased Carna Biosciences. To be noted: binding assay, 5 nM DDR1, 20 nM Kinase Tracer 178; Ki from IC50 by Cheng-Prusoff; read-out: Ki DDR1. The essentials: as §1
T2 sequence (Q08345 19-913): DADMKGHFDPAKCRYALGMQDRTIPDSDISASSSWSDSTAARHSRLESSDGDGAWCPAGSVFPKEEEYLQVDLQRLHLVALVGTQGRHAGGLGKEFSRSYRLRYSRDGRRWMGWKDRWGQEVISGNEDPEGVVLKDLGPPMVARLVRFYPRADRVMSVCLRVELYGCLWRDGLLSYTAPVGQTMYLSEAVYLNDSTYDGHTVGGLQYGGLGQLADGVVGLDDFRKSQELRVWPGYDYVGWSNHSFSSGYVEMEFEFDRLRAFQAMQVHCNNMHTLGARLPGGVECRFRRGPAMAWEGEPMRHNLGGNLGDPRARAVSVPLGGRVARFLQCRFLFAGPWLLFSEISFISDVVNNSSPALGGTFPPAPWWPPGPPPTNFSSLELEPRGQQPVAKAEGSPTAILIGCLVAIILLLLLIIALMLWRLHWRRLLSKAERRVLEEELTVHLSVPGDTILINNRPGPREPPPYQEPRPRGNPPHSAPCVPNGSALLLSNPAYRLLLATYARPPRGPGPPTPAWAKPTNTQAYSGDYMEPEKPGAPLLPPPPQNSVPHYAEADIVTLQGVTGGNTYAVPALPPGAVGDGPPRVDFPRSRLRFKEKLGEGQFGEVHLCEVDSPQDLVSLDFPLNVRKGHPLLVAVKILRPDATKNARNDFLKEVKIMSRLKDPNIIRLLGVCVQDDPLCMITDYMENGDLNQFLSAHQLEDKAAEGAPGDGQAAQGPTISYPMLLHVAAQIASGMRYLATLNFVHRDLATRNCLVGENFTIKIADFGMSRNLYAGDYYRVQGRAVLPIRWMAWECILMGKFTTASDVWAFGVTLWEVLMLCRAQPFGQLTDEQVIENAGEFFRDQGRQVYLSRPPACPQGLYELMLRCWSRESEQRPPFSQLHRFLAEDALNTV
Test [2] addresses T2, DDR1. The test is described as follows: DDR1 cell based assay (PathHunter U2OS DDR1 assay). On the set-up: host or cells: U2OS-DDR1 (PathHunter). To be noted: U2OS-DDR1 cells, bovine Type II Collagen 20 μg/ml. The essentials: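 Receptor activation measured by enzyme-fragment complementation luminescence in engineered U2OS cells. Compound added 30 min before overnight challenge with 20 μg/ml bovine collagen II; data scaled between vehicle and collagen-stimulated controls, IC50 derived by four-parameter variable-slope fitting.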

For `O=C(Nc1cc(CN2CCC23COC3)cc(C(F)(F)F)c1)c1csc2c1CCN(C(=O)c1cnc3ccccn13)C2` [Example 49, N-(3-((6-oxa-1-azaspiro[3.3]heptan-1-yl)methyl)-5-(trifluoromethyl)phenyl)-6-(imidazo[1,2-a]pyridine-3-carbonyl)-4,5,6,7-tetrahydrothieno[2,3-c]pyridine-3-carboxamide], the Ki at DDR2 and at DDR1 [1] was less than 25 nM each time. This compound had an IC50 against DDR1 [2] of less than 25 nM.
For `O=C(Nc1cc(CN2CC3CC2CO3)cc(C(F)(F)F)c1)c1csc2c1CCN(C(=O)c1cnc3ccccn13)C2` (stereo not drawn) [Example 50, N-(3-((2-oxa-5-azabicyclo[2.2.1]heptan-5-yl)methyl)-5-(trifluoromethyl)phenyl)-6-(imidazo[1,2-a]pyridine-3-carbonyl)-4,5,6,7-tetrahydrothieno[2,3-c]pyridine-3-carboxamide], the Ki on DDR2 and on DDR1 [1] was less than 25 nM throughout. Further, on DDR1 [2], the IC50 lay within 25 to 50 nM.
Take `O=C(Nc1cc(CN2CCC(F)C2)cc(C(F)(F)F)c1)c1csc2c1CCN(C(=O)c1cnc3ccccn13)C2` (stereo not drawn) [Example 51, N-(3-((3-fluoropyrrolidin-1-yl)methyl)-5-(trifluoromethyl)phenyl)-6-(imidazo[1,2-a]pyridine-3-carbonyl)-4,5,6,7-tetrahydrothieno[2,3-c]pyridine-3-carboxamide]: the Ki on DDR2 and at DDR1 [1] was less than 25 nM each time. The IC50 against DDR1 [2] lay within 25 to 50 nM.
`O=C(Nc1cc(CN2CCC2)cc(C(F)(F)F)c1)c1csc2c1CCN(C(=O)c1cnc3ccccn13)C2` [Example 52, N-(3-(azetidin-1-ylmethyl)-5-(trifluoromethyl)phenyl)-6-(imidazo[1,2-a]pyridine-3-carbonyl)-4,5,6,7-tetrahydrothieno[2,3-c]pyridine-3-carboxamide]: the Ki at DDR2 and on DDR1 [1] was less than 25 nM in each case. At DDR1 [2], this compound had an IC50 of less than 25 nM.
With `CN(Cc1cc(NC(=O)c2csc3c2CCN(C(=O)c2cnc4ccccn24)C3)cc(C(F)(F)F)c1)C1COC1` [Example 53, 6-(imidazo[1,2-a]pyridine-3-carbonyl)-N-(3-((methyl(oxetan-3-yl)amino)methyl)-5-(trifluoromethyl)phenyl)-4,5,6,7-tetrahydrothieno[2,3-c]pyridine-3-carboxamide], the Ki on DDR2 and at DDR1 [1] was less than 25 nM in each case. Also, the IC50 against DDR1 [2] lay within 50 to 80 nM.
As for `O=C(Nc1cc(CN2CCN(C3COC3)CC2)cc(C(F)(F)F)c1)c1csc2c1CCN(C(=O)c1cnc3ccccn13)C2` [Example 54, 6-(imidazo[1,2-a]pyridine-3-carbonyl)-N-(3-((4-(oxetan-3-yl)piperazin-1-yl)methyl)-5-(trifluoromethyl)phenyl)-4,5,6,7-tetrahydrothieno[2,3-c]pyridine-3-carboxamide], the Ki on DDR2 and on DDR1 [1] was less than 25 nM each time. This compound also showed an IC50 at DDR1 [2] of 50 to 80 nM.
Consider `CN(C)CC1CCN(Cc2cc(NC(=O)c3csc4c3CCN(C(=O)c3cnc5ccccn35)C4)cc(C(F)(F)F)c2)C1` (stereo not drawn) [Example 55, N-(3-((3-((dimethylamino)methyl)pyrrolidin-1-yl)methyl)-5-(trifluoromethyl)phenyl)-6-(imidazo[1,2-a]pyridine-3-carbonyl)-4,5,6,7-tetrahydrothieno[2,3-c]pyridine-3-carboxamide], for which the Ki on DDR2 and at DDR1 [1] was less than 25 nM each time. In addition, the IC50 at DDR1 [2] was 50 to 80 nM.
For `CN(C)C1CCN(Cc2cc(NC(=O)c3csc4c3CCN(C(=O)c3cnc5ccccn35)C4)cc(C(F)(F)F)c2)C1` (stereo not drawn) [Example 56, N-(3-((3-(dimethylamino)pyrrolidin-1-yl)methyl)-5-(trifluoromethyl)phenyl)-6-(imidazo[1,2-a]pyridine-3-carbonyl)-4,5,6,7-tetrahydrothieno[2,3-c]pyridine-3-carboxamide], the Ki on DDR2 and on DDR1 [1] was less than 25 nM in each case. This compound also gave an IC50 on DDR1 [2] of less than 25 nM.
Take `CN(CCO)Cc1cc(NC(=O)c2csc3c2CCN(C(=O)c2cnc4ccccn24)C3)cc(C(F)(F)F)c1` [Example 57, N-(3-(((2-hydroxyethyl)(methyl)amino)methyl)-5-(trifluoromethyl)phenyl)-6-(imidazo[1,2-a]pyridine-3-carbonyl)-4,5,6,7-tetrahydrothieno[2,3-c]pyridine-3-carboxamide]: the Ki on DDR2 and on DDR1 [1] was less than 25 nM throughout. Besides, the IC50 at DDR1 [2] is less than 25 nM.
For `CC(=O)N1CCN(Cc2cc(NC(=O)c3csc4c3CCN(C(=O)c3cnc5ccccn35)C4)cc(C(F)(F)F)c2)CC1` [Example 58, N-(3-((4-acetylpiperazin-1-yl)methyl)-5-(trifluoromethyl)phenyl)-6-(imidazo[1,2-a]pyridine-3-carbonyl)-4,5,6,7-tetrahydrothieno[2,3-c]pyridine-3-carboxamide], the Ki at DDR2 and on DDR1 [1] was less than 25 nM throughout. Further, the IC50 at DDR1 [2] is 25 to 50 nM.
For the compound `CN1CCN(Cc2cc(NC(=O)c3csc4c3CCN(C(=O)c3cnc5ccccn35)C4)cc(C(F)(F)F)c2)CC1=O` [Example 59, 6-(imidazo[1,2-a]pyridine-3-carbonyl)-N-(3-((4-methyl-3-oxopiperazin-1-yl)methyl)-5-(trifluoromethyl)phenyl)-4,5,6,7-tetrahydrothieno[2,3-c]pyridine-3-carboxamide], the Ki on DDR2 and at DDR1 [1] was 25 to 50 nM each time. The same compound came in with an IC50 at DDR1 [2] of 25 to 50 nM.
On to `O=C(Nc1cc(CN2CCCCC2)cc(C(F)(F)F)c1)c1csc2c1CCN(C(=O)c1cnc3ccccn13)C2` [Example 60, 6-(imidazo[1,2-a]pyridine-3-carbonyl)-N-(3-(piperidin-1-ylmethyl)-5-(trifluoromethyl)phenyl)-4,5,6,7-tetrahydrothieno[2,3-c]pyridine-3-carboxamide], for which the Ki at DDR2 and at DDR1 [1] was less than 25 nM in each case. Further, the IC50 at DDR1 [2] was in the range of 50 to 80 nM.
For the compound `COCCN(C)Cc1cc(NC(=O)c2csc3c2CCN(C(=O)c2cnc4ccccn24)C3)cc(C(F)(F)F)c1` [Example 61, 6-(imidazo[1,2-a]pyridine-3-carbonyl)-N-(3-(((2-methoxyethyl)(methyl)amino)methyl)-5-(trifluoromethyl)phenyl)-4,5,6,7-tetrahydrothieno[2,3-c]pyridine-3-carboxamide], the Ki on DDR2 and at DDR1 [1] was less than 25 nM throughout. The compound further displayed an IC50 against DDR1 [2] of 25 to 50 nM.
`CN1CCN(CCOc2cc(NC(=O)c3csc4c3CCN(C(=O)c3cnc5ccccn35)C4)cc(C(F)(F)F)c2)CC1` [Example 62, 6-(imidazo[1,2-a]pyridine-3-carbonyl)-N-(3-(2-(4-methylpiperazin-1-yl)ethoxy)-5-(trifluoromethyl)phenyl)-4,5,6,7-tetrahydrothieno[2,3-c]pyridine-3-carboxamide]: the Ki on DDR2 and at DDR1 [1] was less than 25 nM throughout. On DDR1 [2], this compound returned an IC50 of 25 to 50 nM.
In the case of `CN1CCC(Oc2cc(NC(=O)c3csc4c3CCN(C(=O)c3cnc5ccccn35)C4)cc(C(F)(F)F)c2)C1` (stereo not drawn) [Example 63, 6-(imidazo[1,2-a]pyridine-3-carbonyl)-N-[3-(1-methylpyrrolidin-3-yl)oxy-5-(trifluoromethyl)phenyl]-5,7-dihydro-4H-thieno[2,3-c]pyridine-3-carboxamide], the Ki at DDR2 and at DDR1 [1] was less than 25 nM each time. At DDR1 [2], this compound displayed an IC50 of 50 to 80 nM.
Turning to `CC(C)(C)c1cc(NC(=O)c2csc3c2CCN(C(=O)c2cnc4ccccn24)C3)n(CCO)n1` [Example 64, N-(3-(tert-butyl)-1-(2-hydroxyethyl)-1H-pyrazol-5-yl)-6-(imidazo[1,2-a]pyridine-3-carbonyl)-4,5,6,7-tetrahydrothieno[2,3-c]pyridine-3-carboxamide], the Ki at DDR2 and on DDR1 [1] was less than 25 nM throughout. The IC50 against DDR1 [2] lay within 25 to 50 nM.

(Values after patent publication US20240391936A1, “TETRAHYDROTHIENO PYRIDINE DERIVATIVES AS DDRS INHIBITORS” (CHIESI FARMACEUTICI S.P.A., priority 2021, published 2024).)
